EC50 data for 42 molecules are collected here from PubChem BioAssay AID2253 (Southern Research Specialized Biocontainment Screening …, 2010).

pEC50: −log10 of the molar value.

This assay concerns THP-1 viability, CellTiter-Glo luminescence, 72 h. As to the kind of experiment: human monocytic cell viability reduction – S. typhimurium screen hits, cytotoxicity control for Salmonella PhoP regulon inhibitors, dose response (AID 2253).

By pEC50 is commonly meant the EC50 on a negative log10 scale, so that one unit is a factor of ten.

`Cc1cc(C(=O)N/N=C/c2cc(Br)cc(Br)c2OC(=O)c2ccccc2)n[nH]1`: the pEC50 is 5.12.
Turning to `CCCCCCOC(=O)Sc1nc2ccccc2o1`, the pEC50 was 4.46.
In the case of `C=CCNc1ncnc2c1[nH]c1ccc(C)cc12`, the pEC50 was 4.59.
For the molecule `Oc1c(Cl)cc(Cl)c(Cl)c1Cc1c(O)c(Cl)cc(Cl)c1Cl`, the negative logarithm of the EC50 (pEC50) was 4.83.
`CC(=O)Nc1cc(N=Cc2ccc(O)cc2O)c(Cl)cc1Cl`: the pEC50 was 4.34.
On to `Nc1nonc1C(=O)N/N=C/c1cc(Br)ccc1O`, for which the pEC50 is 5.51.
`O=C(Nc1nc(-c2ccccn2)cs1)c1ccc(Cl)s1`: the pEC50 was 6.10.
On to `Oc1ccc(NCc2ccccc2OCc2ccccc2F)cc1`, for which the pEC50 was 4.70.
Then `O=C(N/N=C/c1cn(-c2ccccc2)nc1-c1ccc(F)cc1)c1ccc2c(c1)OCO2`, with 4.46.
For `CCCCCCCNC(=O)C1(CC2CC(c3cccc(Br)c3)=NO2)CCNCC1` (configuration not stated), the pEC50 was 5.38.
Then `Cc1ccc([N+](=O)[O-])cc1-c1ccc(/C=C(\C#N)c2[nH]nc(N)c2C#N)o1`, with 5.23.
For the molecule `Cc1ccc(-c2csc(N=C(N)N)n2)c(C)c1`, the pEC50 is 4.63.
Consider `O=C1c2[nH]nc(-c3ccccc3O)c2C(c2ccc(F)cc2)N1Cc1ccco1` (configuration not stated), for which the pEC50 was 4.70.
On to `CCN(CC)c1ccc(/C=N/NC(=S)NCc2ccccc2)c(O)c1`, for which the pEC50 was 5.12.
On to `O=c1[nH]c(NCc2ccco2)nnc1Cc1ccccc1Cl`, for which the pEC50 is 5.18.
Then `c1ccc2c(C3=NNC(=NC4CC4)SC3)c[nH]c2c1`, with 4.76; and `O=S1(=O)Nc2c(ccc3cccnc23)-c2ccccc21`, with 6.16.
Then `Clc1cc(Br)ccc1OCCCNCc1ccccc1`, with 4.64; and `Cc1[nH]nc2c1C(c1cc(Br)cs1)C(C#N)=C(N)O2` (configuration not stated), with 4.95.
Then `N#CC1=C(N)N=C(SCc2cccc3ccccc23)C(C(N)=O)C12CCCCC2` (configuration not stated), with 4.68; and `CCCCCN=C(N)N/N=C/c1c[nH]c2ccc(OC)cc12`, with 5.80; and `CCCCCCCCCCOC(=O)Cn1c(COc2ccc(Cl)cc2)[n+](C)c2ccccc21`, with 5.69.
As for `c1ccc(-c2cccc(-c3ccccn3)n2)nc1`, the pEC50 is 6.35.
On to `Oc1cc(Cl)ccc1Oc1ccc(Cl)cc1Cl`, for which the pEC50 was 4.47.
As to `CN(C)CCCNc1cc(C(C)(C)C)nc2c(-c3ccccc3)cnn12`, the pEC50 was 5.03.
Consider `C/C(CC(=O)Nc1ccc(Cl)c(C(F)(F)F)c1)=N\NC(=O)c1cccc(O)c1`, for which the pEC50 is 4.62.
Take `Cc1cccc(Nc2c3c(nc4ccccc24)CCC3)c1`: the pEC50 is 5.04.
Regarding `N/C(=N/OC(=O)c1ccccc1Cl)c1ncc([N+](=O)[O-])s1`, the pEC50 is 4.73.
With `c1ccc(Nc2nc3ccccc3[nH]2)nc1`, the pEC50 was 4.51.
For the molecule `Oc1ccc(CN2CCc3ccccc3C2)c2cccnc12`, the pEC50 is 5.47.
For the molecule `CC(=O)c1ccc(NC(=O)Nc2cccc(Cl)c2)cc1`, the negative-log EC50 (pEC50) was 4.70.
Then `CC1=NN(c2ccc(Cl)cc2)C(=O)C1C(c1cccc(O)c1)c1c(C)[nH]n(-c2ccc(Cl)cc2)c1=O` (configuration not stated), with 4.45; and `N#CC(C#N)=c1ccc2c(c1)NC1(CCCCC1)N=2`, with 5.39; and `S=C(Nc1cccc(Cl)c1)Nc1cccc2cnccc12`, with 4.72.
As to `O=C(Nc1nc(-c2ccncc2)cs1)C1c2ccccc2Oc2ccccc21`, the pEC50 is 4.77.
As for `CCCCCCC(=O)N(O)C1CC(=O)N(c2ccc(C)cc2)C1=O` (configuration not stated), the pEC50 was 4.51.
For the molecule `COc1ccc(NS(=O)(=O)c2cc(C)ccc2NC(=O)c2cc(C)oc2C)cc1`, the pEC50 was 6.59.
As for `CN1CCN(C(c2ccccn2)c2cc(Cl)c3cccnc3c2O)CC1` (configuration not stated), the pEC50 was 5.04.
Take `Cc1ccc(O)c(-c2cc(-c3cccc(F)c3)n[nH]2)c1`: the pEC50 is 4.74.
As to `O=[N+]([O-])c1ccc(O)c2ncccc12`, the pEC50 was 5.08.
Then `C/C(=N\Nc1ncnc2sc(C)c(C)c12)c1ccccn1`, with more than 7.00; and `Clc1ccc(Nc2ncnc3c2cnn3-c2ccccc2)cc1`, with 4.52.
